# Laboratory results taken from patent EP3597653A1, “CYCLIC INHIBITORS OF HEPATITIS B VIRUS” (IRBM S.P.A., priority 2018, dated 2020).
# Test system: HBV
# Assay: HBV inhibition assay in HepAD38 cells (extracellular HBV DNA by direct qPCR)
# Assay type: cell-based
# Details: Hepatitis B virus, 8-point dose-response curve, 96 hours, read-out: HBV inh EC50
# Excerpt: HepAD38 cell line (Ladner et al., Antimicrob Agents Chemother, 1997, 41, 1715-20) was used for HBV inhibition assays. HepAD38 is a subclone, derived from Hepatoblastoma cell line HepG2 (ATCC® Number: HB-8065™), that expresses HBV genome under the control of a tetracycline-responsive promoter in a TET-OFF system: addition of tetracycline suppresses HBV replication, while its removal switches on the process allowing HBV viral particles release in the cell supernatant. HepAD38 cell line is maintained in DMEM/F12, supplemented with 10% of fetal bovine serum, 1% of glutamine, 1% of penicillin/streptomycin, 0.4 mg/ml G418 and 0,3 ug/ml tetracycline. For the HBV inhibition assay, doxycycline-free medium is used in order to allow virion production.
# HBV inhibition activity in vitro was performed in 96 multiwell plates. During the initial (primary) screening compounds were first tested in triplicates at concentrations of 0.1µM, 0.5µM amd 1µM. For selected compounds, an 8-point dose-response curve can be obtained using 1:2 serial dilutions (starting from 2.5 µM, 1.25µM or 0.4 µM, depending on the degree of inhibition observed during the primary screening). From the dose-response curves, half maximal effective concentration (EC50) can be calculated (see also below).
# In more detail, compounds - typically dissolved in DMSO stock solutions - are diluted to 2x the final desired concentration in 100 µl of the above medium (without doxycycline) and plated in three replicates in the 96-well plates.
# Simultaneously, HepAD38 cells - extensively pre-washed in tetracycline-free medium in order to induce HBV production - are suspended at 2*10^4 cells in 100 µl of tetracycline-free medium and added to each well of the plate, to yield a final assay volume of 200 µl DMSO - used for stock solutions and compounds dilutions - which is always present in the assays at a final concentration of 0.5%.
# Plates are then incubated 96 hours at 37°C and then subjected to cell viability assay in order to define compounds cytotoxicity and to extracellular HBV quantification in order to evaluate antiviral activity of compounds. Cytotoxicity is assessed by a commercial fluorescence assay that measures the metabolic activity of cells, directly related to cell viability (Cell Titer Blue, Promega). Anti-HBV activity was evaluated by quantification of extracellular HBV DNA with direct qPCR. In particular, supernatant was collected and centrifuged for cell debris clarification, viral DNA was extracted from virions by addition of lysis buffer (1 mM 1,4-dithiothreitol, 0.2% sodium dodecyl sulphate) and incubated at 95°C for 10 min. Samples were then diluted 1:40 and real time PCR amplification was performed with SYBR green assay (Power SYBR™ Green PCR Master Mix-Thermo Fisher Scientific) and specific HBV primer (HBV-DF:5'-[…]-3' (SEQ ID No. 1), HBV-DR:5'-[…]-3' (SEQ ID No. 2)).
# All HBV inhibition or antiviral activity data are typically reported in percent (%) relative to a non-treated reference sample. Excel and Graphpad Prism programs are typically used for data elaboration and EC50 calculation.
row,SMILES,EC50 [µM]
1,"O=C(Nc1cc(F)c(F)c(F)c1)c1ccc2c(c1)S(=O)(=O)NC(C1CCNCC1)N2 (stereo not shown) [Example E32, 3-(piperidin-4-yl)-N-(3,4,5-trifluorophenyl)-3,4-dihydro-2H-benzo[e][1,2,4]thiadiazine-7-carboxamide 1,1-dioxide]",< 1
2,"O=C(Nc1cc(F)c(F)c(F)c1)c1ccc2c(c1)S(=O)(=O)NC(c1c(F)cccc1F)N2 (stereo not shown) [Example E35, 3-(2,6-difluorophenyl)-N-(3,4,5-trifluorophenyl)-3,4-dihydro-2H-benzo[e][1,2,4]thiadiazine-7-carboxamide 1,1-dioxide]",< 1
3,"Cn1cncc1C1Nc2ccc(C(=O)Nc3cc(F)c(F)c(F)c3)cc2S(=O)(=O)N1 (stereo not shown) [Example E37, 3-(1-methyl-1H-imidazol-5-yl)-N-(3,4,5-trifluorophenyl)-3,4-dihydro-2H-benzo[e][1,2,4]thiadiazine-7-carboxamide 1,1-dioxide]",< 1
4,"O=C(Nc1cc(F)c(F)c(F)c1)c1ccc2c(c1)S(=O)(=O)NC(c1nccs1)N2 (stereo not shown) [Example E49, 3-(thiazol-2-yl)-N-(3,4,5-trifluorophenyl)-3,4-dihydro-2H-benzo[e][1,2,4]thiadiazine-7-carboxamide 1,1-dioxide]",< 1

# Same assay, conditions: Hepatitis B virus, compound at 0.5 µM, 96 hours, relative to non-treated reference, read-out: Anti HBV Activity (conc µM)
row,SMILES,inhibition at 0.5 µM [%]
1,"O=C(Nc1cc(F)c(F)c(F)c1)c1ccc2c(c1)S(=O)(=O)NC([C@@H](O)CO)N2 (stereo partly drawn) [Example E26, 3-((R)-1,2-dihydroxyethyl)-N-(3,4,5-trifluorophenyl)-3,4-dihydro-2H-benzo[e][1,2,4]thiadiazine-7-carboxamide 1,1-dioxide]",> 50
2,"CC1(C)Nc2ccc(C(=O)Nc3cc(F)c(F)c(F)c3)cc2S(=O)(=O)N1 [Example E27, 3,3-dimethyl-N-(3,4,5-trifluorophenyl)-3,4-dihydro-2H-benzo[e][1,2,4]thiadiazine-7-carboxamide 1,1-dioxide]",> 50
3,"O=C(Nc1cc(F)c(F)c(F)c1)c1ccc2c(c1)S(=O)(=O)NC(CO)N2 (stereo not shown) [Example E28, 3-(hydroxymethyl)-N-(3,4,5-trifluorophenyl)-3,4-dihydro-2H-benzo[e][1,2,4]thiadiazine-7-carboxamide 1,1-dioxide]",> 50
4,"CN1C(C2CCNCC2)Nc2ccc(C(=O)Nc3cc(F)c(F)c(F)c3)cc2S1(=O)=O (stereo not shown) [Example E33, 2-methyl-3-(piperidin-4-yl)-N-(3,4,5-trifluorophenyl)-3,4-dihydro-2H-benzo[e][1,2,4]thiadiazine-7-carboxamide 1,1-dioxide]",< 50

# Same assay, conditions: Hepatitis B virus, compound at 1 µM, 96 hours, relative to non-treated reference, read-out: Anti HBV Activity (conc µM)
row,SMILES,inhibition at 1 µM [%]
1,"NCC1Nc2ccc(C(=O)Nc3cc(F)c(F)c(F)c3)cc2S(=O)(=O)N1 (stereo not shown) [Example E29, 3-(aminomethyl)-N-(3,4,5-trifluorophenyl)-3,4-dihydro-2H-benzo[e][1,2,4]thiadiazine-7-carboxamide 1,1-dioxide]",> 50
2,"CC(=O)NCC1Nc2ccc(C(=O)Nc3cc(F)c(F)c(F)c3)cc2S(=O)(=O)N1 (stereo not shown) [Example E30, 3-(acetamidomethyl)-N-(3,4,5-trifluorophenyl)-3,4-dihydro-2H-benzo[e][1,2,4]thiadiazine-7-carboxamide 1,1-dioxide]",> 50
3,"CC(C)(C)OC(=O)N1CCC(C2Nc3ccc(C(=O)Nc4cc(F)c(F)c(F)c4)cc3S(=O)(=O)N2)CC1 (stereo not shown) [Example E31, tert-butyl 4-(1,1-dioxido-7-((3,4,5-trifluorophenyl)carbamoyl)-3,4-dihydro-2H-benzo[e] [1,2,4]thiadiazin-3-yl)piperidine-1-carboxylate]",> 50
4,"O=C(Nc1cc(F)c(F)c(F)c1)c1cc2c(cc1Cl)NC1(CCC1)NS2(=O)=O [Example E34, 6-chloro-N-(3,4,5-trifluorophenyl)-2H,4H-spiro[benzo[e] [1,2,4]thiadiazine-3,1'-cyclobutane]-7-carboxamide 1,1-dioxide]",< 50
5,"O=C(Nc1cc(F)c(F)c(F)c1)c1cc2c(cc1Cl)NC(c1nccs1)NS2(=O)=O (stereo not shown) [Example E36, 6-chloro-3-(thiazol-2-yl)-N-(3,4,5-trifluorophenyl)-3,4-dihydro-2H-benzo[e][1,2,4]thiadiazine-7-carboxamide 1,1-dioxide]",> 50
6,"Cc1nc(C)c(C2Nc3ccc(C(=O)Nc4ccc(F)c(F)c4)cc3S(=O)(=O)N2)o1 (stereo not shown) [Example E38, N-(3,4-difluorophenyl)-3-(2,4-dimethyloxazol-5-yl)-3,4-dihydro-2H-benzo[e][1,2,4]thiadiazine-7-carboxamide 1,1-dioxide]",> 50
7,"CC1(c2ccncc2)Nc2ccc(C(=O)Nc3cc(F)c(F)c(F)c3)cc2S(=O)(=O)N1 (stereo not shown) [Example E39, 3-methyl-3-(pyridin-4-yl)-N-(3,4,5-trifluorophenyl)-3,4-dihydro-2H-benzo[e][1,2,4]thiadiazine-7-carboxamide 1,1-dioxide]",> 50
8,"O=C(Nc1cc(F)c(F)c(F)c1)c1ccc2c(c1)S(=O)(=O)NC(c1cncs1)N2 (stereo not shown) [Example E40, 3-(thiazol-5-yl)-N-(3,4,5-trifluorophenyl)-3,4-dihydro-2H-benzo[e][1,2,4]thiadiazine-7-carboxamide 1,1-dioxide]",> 50
9,"O=C(Nc1cc(F)c(F)c(F)c1)c1ccc2c(c1)S(=O)(=O)NC(c1cscn1)N2 (stereo not shown) [Example E41, 3-(thiazol-4-yl)-N-(3,4,5-trifluorophenyl)-3,4-dihydro-2H-benzo[e][1,2,4]thiadiazine-7-carboxamide 1,1-dioxide]",> 50
10,"O=C(Nc1cc(F)c(F)c(F)c1)c1ccc2c(c1)S(=O)(=O)NC(c1ccc(C(F)(F)F)nc1)N2 (stereo not shown) [Example E42, 3-(6-(trifluoromethyl)pyridin-3-yl)-N-(3,4,5-trifluorophenyl)-3,4-dihydro-2H-benzo[e][1,2,4]thiadiazine-7-carboxamide 1,1-dioxide]",> 50
11,"O=C(Nc1cc(F)c(F)c(F)c1)c1ccc2c(c1)S(=O)(=O)NC(c1cccs1)N2 (stereo not shown) [Example E43, 3-(thiophen-2-yl)-N-(3,4,5-trifluorophenyl)-3,4-dihydro-2H-benzo[e][1,2,4]thiadiazine-7-carboxamide 1,1-dioxide]",> 50
12,"O=C(Nc1cc(F)c(F)c(F)c1)c1ccc2c(c1)S(=O)(=O)NC(c1ccccn1)N2 (stereo not shown) [Example E44, 3-(pyridin-2-yl)-N-(3,4,5-trifluorophenyl)-3,4-dihydro-2H-benzo[e][1,2,4]thiadiazine-7-carboxamide 1,1-dioxide]",> 50
13,"O=C(Nc1cc(F)c(F)c(F)c1)c1ccc2c(c1)S(=O)(=O)NC(c1cnns1)N2 (stereo not shown) [Example E45, 3-(1,2,3-thiadiazol-5-yl)-N-(3,4,5-trifluorophenyl)-3,4-dihydro-2H-benzo[e][1,2,4]thiadiazine-7-carboxamide 1,1-dioxide]",> 50
14,"O=C(Nc1cc(F)c(F)c(F)c1)c1ccc2c(c1)S(=O)(=O)NC(c1ccn[nH]1)N2 (stereo not shown) [Example E46, 3-(1H-pyrazol-5-yl)-N-(3,4,5-trifluorophenyl)-3,4-dihydro-2H-benzo[e][1,2,4]thiadiazine-7-carboxamide 1,1-dioxide]",> 50
15,"O=C(Nc1ccc(F)c(F)c1)c1ccc2c(c1)S(=O)(=O)NC(c1cccnc1)N2 (stereo not shown) [Example E47, N-(3,4-difluorophenyl)-3-(pyridin-3-yl)-3,4-dihydro-2H-benzo[e][1,2,4]thiadiazine-7-carboxamide 1,1-dioxide]",> 50
16,"O=C(Nc1cc(F)c(F)c(F)c1)c1ccc2c(c1)S(=O)(=O)NC(c1cccnc1)N2 (stereo not shown) [Example E48, 3-(pyridin-3-yl)-N-(3,4,5-trifluorophenyl)-3,4-dihydro-2H-benzo[e][1,2,4]thiadiazine-7-carboxamide 1,1-dioxide]",> 50
17,"O=C(Nc1ccc(F)c(F)c1)c1ccc2c(c1)S(=O)(=O)NC(c1nccs1)N2 (stereo not shown) [Example E50, N-(3,4-difluorophenyl)-3-(thiazol-2-yl)-3,4-dihydro-2H-benzo[e][1,2,4]thiadiazine-7-carboxamide 1,1-dioxide]",> 50
